Data taken from BindingDB's records for doi:10.1016/s0960-894x(00)00462-5 (Smithkline Beecham Pharmaceuticals, 2001).

How the values were obtained:
[1] = target: Capsid scaffolding protein / assemblin protease (Human cytomegalovirus) (UniProt P16753); experiment: In vitro inhibitory activity against human cytomegalovirus (hCMV) protease in the absence of zinc
[2] = target: Capsid scaffolding protein / assemblin protease (Human cytomegalovirus) (UniProt P16753); experiment: In vitro inhibitory activity against human cytomegalovirus (hCMV) protease in the presence of zinc
[3] = target: Capsid scaffolding protein / assemblin protease (Human cytomegalovirus) (UniProt P16753); experiment: as above; remark: listed apart in the source

Capsid scaffolding protein / assemblin protease (Human cytomegalovirus), sequence (P16753 whole entry, looked up): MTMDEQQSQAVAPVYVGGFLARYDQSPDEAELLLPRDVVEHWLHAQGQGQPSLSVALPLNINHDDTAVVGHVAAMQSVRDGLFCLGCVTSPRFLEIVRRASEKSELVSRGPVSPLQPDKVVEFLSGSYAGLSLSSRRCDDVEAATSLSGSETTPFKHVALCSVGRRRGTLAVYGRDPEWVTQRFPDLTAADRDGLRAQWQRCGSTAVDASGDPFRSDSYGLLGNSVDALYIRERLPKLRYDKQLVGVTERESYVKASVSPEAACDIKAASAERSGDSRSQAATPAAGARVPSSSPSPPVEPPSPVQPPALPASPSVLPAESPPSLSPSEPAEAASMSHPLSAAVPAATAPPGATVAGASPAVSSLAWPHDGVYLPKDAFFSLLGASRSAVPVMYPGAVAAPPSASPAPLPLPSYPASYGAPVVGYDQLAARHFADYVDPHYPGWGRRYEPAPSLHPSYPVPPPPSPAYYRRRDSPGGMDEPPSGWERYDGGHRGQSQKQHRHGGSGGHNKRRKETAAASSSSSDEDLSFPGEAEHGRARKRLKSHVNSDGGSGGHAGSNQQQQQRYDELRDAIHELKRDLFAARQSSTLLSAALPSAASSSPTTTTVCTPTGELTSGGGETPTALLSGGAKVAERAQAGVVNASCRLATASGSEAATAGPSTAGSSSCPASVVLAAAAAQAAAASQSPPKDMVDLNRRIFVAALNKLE

| Compound | IC50 [1] | IC50 [2] | IC50 [3] |
| --- | --- | --- | --- |
| CCCCCCCCSc1ncc(Cc2cn(CC(=O)NC(CC(=O)OCc3ccccc3)C(=O)OCc3ccccc3)cn2)[nH]1 (stereo not drawn) [2-{2-[4-(2-Octylsulfanyl-1H-imidazol-4-ylmethyl)-imidazol-1-yl]-acetylamino}-succinic acid dibenzyl ester] | 15 µM | 5 µM |  |
| CCCCCCCCSc1ncc(Cc2cn(Cc3ccc(C(=O)NCC4CC4)cc3)cn2)[nH]1 [N-Cyclopropylmethyl-4-[4-(2-octylsulfanyl-1H-imidazol-4-ylmethyl)-imidazol-1-ylmethyl]-benzamide] | > 150 µM | 15 µM |  |
| CCCCCCCCSc1ncc(Cc2cn(CC(=O)NC(Cc3ccccc3)C(=O)OCc3ccccc3)cn2)[nH]1 (stereo not drawn) [2-{2-[4-(2-Octylsulfanyl-1H-imidazol-4-ylmethyl)-imidazol-1-yl]-acetylamino}-3-phenyl-propionic acid benzyl ester] | 125 µM |  | 41 µM |
| CCCCCCCCSc1ncc(Cc2cn(Cc3ccc(C(=O)OC)cc3)cn2)[nH]1 [4-[4-(2-Octylsulfanyl-1H-imidazol-4-ylmethyl)-imidazol-1-ylmethyl]-benzoic acid methyl ester] | > 150 µM | 7 µM |  |
